From patent publication US20240117431A1, “STEM-CELL BASED BIOMARKER DISCOVERY” (THE REGENTS OF THE UNIVERSITY OF CALIFORNIA, priority 2020, published 2024)

Columns and labels:
[1] = test system: 3×MT-TgUPRT transfected HEK293 cells; assay: RNA fluorescence imaging via IEDDA (confocal microscopy); assay type: cell-based, Toxoplasma gondii; details: 1 mM, 24 hours, tetrazene biotin + fluorophore-streptavidin, FIG. 10A
Experimental: RNA fluorescence imaging via IEDDA: The cell culture dishes and glass coverslips were coated with poly-D-lysine (10 μg/ml) for 24 h at 37° C. and washed three times with autoclaved water to remove the excessive amount of poly-D lysine. HEK293 cells were seeded on glass coverslips at 2.5×105 in a 6-well plate. Twenty-four hours post-seeding, cells were transiently transfected with 1 μg WT- or MT-TgUPRT using jetPRIME transfection reagent according to the manufacturers manual (Polyplus Transfection, France). Twenty-four hours post-transfection, cells were treated with DMSO or 1 mM 5VU for 24 hours. After labeling, cells were washed 3× with DPBS, fixed and permeabilized for 30 min at room temperature with 3.7% paraformaldehyde and 0.15% Triton-X100. Cells were then washed three times (7 min/each) on orbital shaker with DPBS, blocked with Streptavidin (2 mg/mL in DPBS) for 30 minutes and followed with BSA (1 mg/ml in DPBS, 0.45% NaCl and 0.025% NaN3) for 30 min at room temperature, washed 2× with DPBS. Blocked cells were incubated with 200-500 μL of 1 mM biotin-tetrazine solution in water for 3 hours at 37° C. […] Slides were imaged via fluorescence confocal microscopy using a 63× oil immersion objective on a […] Carl Zeiss microscope. […]

HEK cells = assay: Trypan blue cell viability / proliferation; assay type: cell-based; details: triple mutant TgUPRT + 5VU 200 μM, 5, 16, 24h, versus untreated cells, FIG. 11
Experimental: Equal amount HEK cells (2×10^5) were seeded in a 6-well plate with 2 mL media. Twenty-four hour […], HEK cells were transfected with 1 μg empty plasmid (No GFP nor TgUPRT), double (2×MT) or triple (3×MT) TgUPRT mutants. 5VU was added to cells at 200 μM final concentration for 5, 16 and 24h treatment so that by the time cells were assayed with Trypan blue, they underwent 48h post transfection. DMSO (carrier) treatment (negative control) was done for 24h. Cells were stained with 0.04% Trypan blue for 5 minutes and subjected to cell counting using Countess II FL (Invitrogen, USA). Per condition, counting was done with n=2× biological and 3× technical replicates.

## C=Cc1c[nH]c(=O)[nH]c1=O [compound 2, 5-Vinylpyrimidine-2,4(1H,3H)-dione]
[1]
  fluorescent signal of labeled RNA: fluorescent signal was observed only in the presence of both 2 and 3×MT-TgUPRT transfected cells
HEK cells
  cell viability, Trypan blue: non-significant differences to untreated cells
